Measurements: US20180327364A1, “MTOR INHIBITORS AND METHODS OF USE THEREOF” (Brandeis University, priority 2015, published 2018)

Tests used:
[1] = test system: firefly luciferase; experiment: Luciferase assay in stably transduced luciferase HEK-293T cells; type: cell-based
Protocol: Firefly luciferase and firefly luciferase-eDHFR were cloned into pBABE-puro vector which was a gift from Hartmut Land & Jay Morgenstern & Bob Weinberg (Addgene plasmid #1764). pBABE-puro-luciferase was co-transfected with VSV-G into GP2-293 cells (Retro-X Universal Packaging System, Clonetech, Mountain View, Calif.) with TransIT-2020 (MirusBio) according to TransIT-2020's manufacture's protocol. After 48 h, viral supernatant was harvested, spun down, filtered with a […] syringe filter, and added to HEK-293T supplemented with 8 μg/mL polybrene. After 4 h of infection, the media was replaced with fresh media. 48 h later, media was replaced with media containing 3 μg/mL puromycin. Media was replaced with fresh media containing puromycin every 3-4 days. After 2 weeks of puromycin selection, the cells were grown out from single cell colonies and screened for luciferase expression.
(§1) Stably transduced luciferase HEK-293T cells were plated in 96-well plates 24 h prior to treatment with 100 μM of Cbz-B3A, amine-B3A, acetyl-B3A, and Cbz-acetyl. After 4 h, cells were harvested and measured with Luciferase Assay System with Reporter Lysis Buffer from Promega according to the manufacturer's protocol. Before the addition of luciferin, protein concentration was measured by removing 2 μl of lysate from each well and adding it to diluted Bio-Rad Protein Assay Dye Reagent Concentrate, and the absorbance was measured at OD595. The protein concentration was used to normalize luciferase signal. For translation assays, cells were pretreated for 15 min with 100 μg/mL cycloheximide or 6 μM bortezomib. For the recombinant luciferase assay, Quantilum Recombinant Luciferase (Promega) was diluted 1:250,000 in reporter lysis buffer with 1 mg/mL BSA then mixed 1:1 with 200 μM compound in the same buffer for a final dilution of 1:500,000 and 100 μM compound in 20 μL. This was incubated for 10 min at room temperature then measured with Luciferase Assay System with Reporter Lysis Buffer from Promega according to the manufacturer's protocol.

[2] = molecular target: T1, recombinant firefly luciferase (Photinus pyralis, UniProt P08659); experiment: Recombinant luciferase assay; type: biochemical; settings: 100 μM compound, 10 min incubation
T1 construct: purchased Promega
Protocol: as §1

[3] = test system: 4EBP1 phosphorylation by mTORC1; experiment: 4EBP1 phosphorylation immunoblot in HEK-293T cells; type: cell-based; settings: 4 h
Protocol: (§2) Quantification of western blots was performed with ImageJ. Cells were lysed in RIPA buffer (1% NP-40, 1% NaDeoxycholate, 0.1% SDS, 10 mM TrisCl, 10 mM β-glycerophosphate, 10 mM Na pyrophosphate, 50 mM NaF, 200 μM Na vanadate, 1 mM EDTA, 500 μM EGTA, 1% benzonase, and supplemented with complete (Roche Diagnostics) protease inhibitors).

[4] = test system: mTOR; experiment: mTOR level and mTOR phosphorylation immunoblot in HEK-293T cells; type: cell-based; settings: 10 μM, 4 h
Protocol: as §2

[5] = test system: LC3 A/B II; experiment: LC3 A/B II immunoblot (autophagy) in HEK-293T cells; type: cell-based; settings: Cbz-B3A 10 μM, rapamycin 20 nM, 4 h
Protocol: as §2

[6] = test system: mTORC2 catalyzed phosphorylation of Akt; experiment: Akt phosphorylation immunoblot (mTORC2) in HEK-293T cells; type: cell-based; settings: HEK-293T cells treated with Cbz-B3A
Protocol: as §2

[7] = molecular target: T2, ubiquilin 4 (Homo sapiens, UniProt Q9NRR5); experiment: Cellular thermal shift assay (CETSA) in HEK-293T lysate; type: binding; settings: 100 μM Cbz-B3A, lysate incubated 30 min
T2 construct: endogenous in cells; host or cells: HEK-293T lysate
Protocol: CETSA was performed as previously described. Briefly, HEK-293T cells were lysed in DPBS with Roche complete protease inhibitor by 3 quick freeze thaws, centrifuged at 20,000 g for 20 min at 4° C., and the supernatant was adjusted to 4 mg/mL. Lysate was incubated with compound for 30 min and heated to different temperatures in a thermal cycler for 3 min, then cooled to room temperature for 3 min. All samples were then centrifuged at 20,000 g for 20 min at 4° C. and a western blot was run on the supernatant.

[8] = test system: HEK-293T cells; experiment: CellTiter-Glo proliferation, HEK-293T; type: cell-based; settings: Homo sapiens, 48 h
Protocol: (§3) To determine cellular growth, CellTiter-Glo luminescent cell viability assay (Promega) was used per the manufacturer's instruction. To determine cytotoxicity, LDH release was measured with the LDH Cytotoxicity Assay Kit (Pierce) according to the manufacture's protocol. For 4 h assays, 96 well plates were seeded at 75,000 cells/mL for BaF3/p210 cells or K562 cells. For HEK-293T cells, 10,000 cells/well were plated 24 h before treatment. Cells were treated for 4 h at 37° C. and […] was removed from every well and used in the LDH Cytotoxicity assay per the manufacturer's protocol. For 48 h assays, 7,500 cells/mL of BaF3/p210 or K562 cells were incubated with compound at 37° C. for 48 h (200 μL/well). For HEK-293T cells, 1,000 cells/well were plated 24 h prior to compound treatment. After treatment, 50 μL was removed from each well for the LDH assay for all cell lines and 100 μL of mixed cells were removed and used with the CellTiter-Glo kit for K562 and BaF3/p210 cells. For HEK-293T cells, wells were treated directed with the CellTiter-Glo kit. Cytotoxicity or viability was measured by luminosity and absorbance on a microplate reader.

[9] = test system: K562 cells; experiment: CellTiter-Glo proliferation, K562; type: cell-based; settings: Homo sapiens, 48 h
Protocol: as §3

[10] = test system: BaF3/p210 cells; experiment: CellTiter-Glo proliferation, BaF3/p210; type: cell-based; settings: Mus musculus, 48 h
Protocol: as §3

[11] = test system: K562, BaF3/p210, and HEK-293T cells; experiment: LDH release cytotoxicity assay; type: cell-based; settings: 4 and 48 h
Protocol: as §3

[12] = test system: K562 cells; experiment: NCI-60 DTP Human Tumor Cell Line Screen, K562; type: cell-based; settings: 48 h, read-out: inhibition of proliferation, K562
Protocol: (§4) Screen was conducted as previously described, performed at Developmental Therapeutics Program NCI/NIH.

[13] = test system: MOLT-4; experiment: NCI-60 DTP Human Tumor Cell Line Screen, MOLT-4; type: cell-based; settings: 10 μM, 48 h
Protocol: as §4

[14] = test system: SR; experiment: NCI-60 DTP Human Tumor Cell Line Screen, SR; type: cell-based; settings: 10 μM, 48 h
Protocol: as §4

[15] = test system: Rheb; experiment: Rheb level immunoblot in HEK-293T cells; type: cell-based; settings: 10 μM, 4 h; p=0.04 vs DMSO
Protocol: as §2

[16] = test system: TSC2; experiment: TSC2 level immunoblot in HEK-293T cells; type: cell-based; settings: 10 μM, 4 h; p=0.19 vs DMSO
Protocol: as §2

T2 sequence (Q9NRR5 whole entry): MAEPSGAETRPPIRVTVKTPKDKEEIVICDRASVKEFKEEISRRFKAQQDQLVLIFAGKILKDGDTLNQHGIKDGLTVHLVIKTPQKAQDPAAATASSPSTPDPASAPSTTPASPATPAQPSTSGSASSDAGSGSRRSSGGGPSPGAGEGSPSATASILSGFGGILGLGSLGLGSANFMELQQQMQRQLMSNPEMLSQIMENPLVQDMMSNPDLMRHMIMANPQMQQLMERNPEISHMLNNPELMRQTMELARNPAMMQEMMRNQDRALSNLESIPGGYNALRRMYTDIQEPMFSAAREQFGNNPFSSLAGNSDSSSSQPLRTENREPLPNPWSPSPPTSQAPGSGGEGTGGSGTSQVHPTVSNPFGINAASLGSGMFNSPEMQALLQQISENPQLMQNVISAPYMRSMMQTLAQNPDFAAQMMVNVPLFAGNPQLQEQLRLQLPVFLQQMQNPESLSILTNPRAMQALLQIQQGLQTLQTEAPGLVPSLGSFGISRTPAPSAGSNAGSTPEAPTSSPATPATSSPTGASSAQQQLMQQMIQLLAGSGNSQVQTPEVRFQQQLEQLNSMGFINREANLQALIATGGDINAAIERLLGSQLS
T1 sequence (P08659 whole entry): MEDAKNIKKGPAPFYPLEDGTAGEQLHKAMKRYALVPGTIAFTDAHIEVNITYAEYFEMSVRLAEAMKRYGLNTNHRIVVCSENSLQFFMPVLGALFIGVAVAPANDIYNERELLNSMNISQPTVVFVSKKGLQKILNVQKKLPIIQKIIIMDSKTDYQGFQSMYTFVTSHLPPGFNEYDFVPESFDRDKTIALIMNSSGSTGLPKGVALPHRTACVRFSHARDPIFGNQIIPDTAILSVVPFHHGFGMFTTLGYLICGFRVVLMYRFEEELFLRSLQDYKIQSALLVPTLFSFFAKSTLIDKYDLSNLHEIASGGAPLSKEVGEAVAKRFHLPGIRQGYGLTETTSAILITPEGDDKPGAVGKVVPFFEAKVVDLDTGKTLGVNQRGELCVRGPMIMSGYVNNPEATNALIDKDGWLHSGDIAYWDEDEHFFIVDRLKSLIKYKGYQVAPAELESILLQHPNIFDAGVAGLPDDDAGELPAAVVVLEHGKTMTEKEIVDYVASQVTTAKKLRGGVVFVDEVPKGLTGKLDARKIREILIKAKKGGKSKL

CC(C)(C)OC(=O)/N=C(\NCCC[C@H](NC(=O)OC(C)(C)C)C(=O)NCCCCCCNC(=O)OCc1ccccc1)NC(=O)OC(C)(C)C [Cbz-B3A]
firefly luciferase signal, co-treatment with bortezomib compared to bortezomib alone ([1]; 6 μM bortezomib pretreatment 15 min, then 100 μM Cbz-B3A 4 h): decreased
luciferase activity, co-treatment with cycloheximide ([1]; 100 μg/mL cycloheximide pretreatment 15 min, then 100 μM Cbz-B3A 4 h): no further decrease in luciferase activity
wild type luciferase signal ([1]; HEK-293T cells expressing HA-luciferase, 100 μM, 4 h): decreased the wild type luciferase signal
recombinant firefly luciferase signal (enzymatic activity) [2]: no reduction of signal
4EBP1 phosphorylation (hyper- vs hypo-phosphorylated band) ([3]; Cbz-B3A 10 μM, Cbz-acetyl 10 μM, rapamycin 20 nM): clear shift from hyper-phosphorylation to hypo-phosphorylation
EC50 ([3]; Homo sapiens, HEK-293T, read-out: EC50 of inhibition of 4EBP1 phosphorylation): ~2000 nM
Ser2481 phosphorylation of mTOR [4]: no change in Ser2481 phosphorylation
levels of mTOR [4]: did not change
phosphorylation of mTOR at Ser2448 [4]: only a small effect
LC3 A/B II (autophagy) [5]: increased LC3 A/B II to equivalent levels as rapamycin
Akt phosphorylation at Ser473 [6]: No decrease in Akt phosphorylation
melting temperature shift of ubiquilin 4 [7]: clear shift to a lower melting temperature
inhibition at 10 µM [8]: 64%
inhibition at 10 µM [9]: 52%
inhibition at 10 µM [10]: 68%
cytotoxicity by release of lactate dehydrogenase [11]: not cytotoxic
inhibition at 10 µM [12]: 39%
decrease in proliferation, MOLT-4 [13]: 80%
decrease in proliferation, SR [14]: 83%
amount of Rheb [15]: increased the amount of Rheb
amount of TSC2 [16]: appeared to increase the amount of TSC2
